{"source": "patent US7632783B2", "about": "(priority 2004, dated 2009)"}
{"system": "gray mold (Botrytis cinerea)", "experiment": "Tomato gray mold control test (preventive effects)", "format": "in vivo", "conditions": "potted tomato (giant Fukuju variety), spraying liquid 300 ppm before spore inoculation, investigated 2 days after inoculation, levels 0 to 3", "description": "Bulk drug was dissolved in a mixed solution of dimethylsulfoxide and methanol (volume ratio: 7/3), and spraying liquids containing 300 ppm of compounds of the present invention were uniformly sprayed onto potted test plants (tomato: giant Fukuju variety) in the second to third leaf stage. […], a suspension of pathogen spores were inoculated by spraying onto the pots in an inoculation room at a room temperature of 20 to 23° C. to promote the onset of disease. The degree of disease onset was investigated 2 days after inoculation. The test was carried out in duplicate.\nFurthermore, the degree of disease onset was evaluated to one of four levels from 0 to 3 according to the criteria below by macroscopically observing the degree of disease onset of the test plants.\n1: Degree of disease onset less than 40% of the untreated area\n2: Degree of disease onset 40% to less than 80% of the untreated area\n3: Degree of disease onset 80% or more"}
{"compound": "CC1(C)Cc2cc(Cl)ccc2C(c2cnc3ccccc3c2)=N1", "note": "[Example 20, 3-(6-chloro-3,3-dimethyl-3,4-dihydroisoquinolin-1-yl)quinoline]", "degree of disease onset": 0}
{"compound": "CC1(C)Cc2cc(Br)ccc2C(c2cnc3ccccc3c2)=N1", "note": "[Example 23, 3-(6-bromo-3,3-dimethyl-3,4-dihydroisoquinolin-1-yl)quinoline]", "degree of disease onset": 0}
{"compound": "CC(=NOc1ccccc1)c1cccc2c1CC(C)(C)N=C2c1cnc2ccccc2c1", "note": "[Example 44, 1-(3,3-dimethyl-1-quinolin-3-yl-3,4-dihydroisoquinolin-5-yl)ethanone=O-phenyloxime]", "degree of disease onset": 0}
{"compound": "CC1(C)Cc2c(ccc(Cl)c2Cl)C(c2cnc3ccccc3c2)=N1", "note": "[Example 53, 3-(5,6-dichloro-3,3-dimethyl-3,4-dihydroisoquinolin-1-yl)quinoline]", "degree of disease onset": 0}
{"compound": "Clc1ccc2c(c1)CC1(CCCCC1)N=C2c1cnc2ccccc2c1", "note": "[Example 92, 6′-chloro-1′-quinolin-3-yl-4′H-spiro[cyclohexane-1,3′-isoquinoline]]", "degree of disease onset": 0}
{"compound": "CC1c2c(F)cccc2C(c2cnc3ccccc3c2)=NC1(C)C", "note": "(stereo not shown) [Example 120, 3-(5-fluoro-3,3,4-trimethyl-3,4-dihydroisoquinolin-1-yl)quinoline]", "degree of disease onset": 0}
{"compound": "CC1c2c(Cl)cccc2C(c2cnc3ccccc3c2)=NC1(C)C", "note": "(stereo not shown) [Example 121, 3-(5-chloro-3,3,4-trimethyl-3,4-dihydroisoquinolin-1-yl)quinoline]", "degree of disease onset": 0}
{"compound": "CC1(C)N=C(c2cnc3ccccc3c2)c2cccc(Cl)c2C1(C)C", "note": "[Example 123, 3-(5-chloro-3,3,4,4-tetramethyl-3,4-dihydroisoquinolin-1-yl)quinoline]", "degree of disease onset": 0}
{"system": "rice blast (Pyricularia oryzae)", "experiment": "not given", "format": "in vivo", "conditions": "potted rice (variety Karakaze), spraying liquid 300 ppm after spore inoculation, observed 7 days after inoculation, levels 0 to 3"}
{"compound": "5-fluoro-3,3,4,4-tetramethyl-8b-(1-oxidequinoline-3-yl)-4,8b-dihydro-3H-oxazileno[3,2-a]isoquinoline [Example 198]", "degree of disease onset": 0}
{"compound": "CC1(C)Cc2ccccc2C(c2cnc3ccccc3c2)=N1", "note": "[Example 6, 3-(3,3-dimethyl-3,4-dihydroisoquinolin-1-yl)quinoline]", "degree of disease onset": 0}
{"compound": "CC1(C)Cc2ccccc2C(c2cnc3c(F)cccc3c2)=N1", "note": "[Example 7, 3-(3,3-dimethyl-3,4-dihydroisoquinolin-1-yl)-8-fluoroquinoline]", "degree of disease onset": 0}
{"compound": "Cc1cccc2cc(C3=NC(C)(C)Cc4ccccc43)cnc12", "note": "[Example 9, 3-(3,3-dimethyl-3,4-dihydroisoquinolin-1-yl)-8-methylquinoline]", "degree of disease onset": 0}
{"compound": "CC1(C)Cc2cc(F)ccc2C(c2cnc3ccccc3c2)=N1", "note": "[Example 16, 3-(6-fluoro-3,3-dimethyl-3,4-dihydroisoquinolin-1-yl)quinoline]", "degree of disease onset": 0}
{"compound": "Cc1cccc2c1CC(C)(C)N=C2c1cnc2ccccc2c1", "note": "[Example 26, 3-(3,3,5-trimethyl-3,4-dihydroisoquinolin-1-yl)quinoline]", "degree of disease onset": 0}
{"compound": "CC1(C)Cc2c(cccc2-c2cccs2)C(c2cnc3ccccc3c2)=N1", "note": "[Example 32, 3-[5-(2-thienyl)-3,3-dimethyl-3,4-dihydroisoquinolin-1-yl]quinoline]", "degree of disease onset": 0}
{"compound": "CC1(C)Cc2c(cccc2-c2ccsc2)C(c2cnc3ccccc3c2)=N1", "note": "[Example 33, 3-[5-(3-thienyl)-3,3-dimethyl-3,4-dihydroisoquinolin-1-yl]quinoline]", "degree of disease onset": 0}
{"compound": "CON=C(C)c1cccc2c1CC(C)(C)N=C2c1cnc2ccccc2c1", "note": "[Example 36, 1-(3,3-dimethyl-1-quinolin-3-yl-3,4-dihydroisoquinolin-5-yl)ethanone=O-methyloxime]", "degree of disease onset": 0}
{"compound": "CCON=C(C)c1cccc2c1CC(C)(C)N=C2c1cnc2ccccc2c1", "note": "[Example 38, 1-(3,3-dimethyl-1-quinolin-3-yl-3,4-dihydroisoquinolin-5-yl)ethanone=O-ethyloxime]", "degree of disease onset": 0}
{"compound": "CCC1(C)Cc2ccccc2C(c2cnc3ccccc3c2)=N1", "note": "(stereo not shown) [Example 55, 3-(3-ethyl-3-methyl-3,4-dihydroisoquinolin-1-yl)quinoline]", "degree of disease onset": 0}
{"compound": "CCCC1(C)Cc2ccccc2C(c2cnc3ccccc3c2)=N1", "note": "(stereo not shown) [Example 57, 3-(3-methyl-3-propyl-3,4-dihydroisoquinolin-1-yl)quinoline]", "degree of disease onset": 0}
{"compound": "CC(C)C1(C)Cc2ccccc2C(c2cnc3ccccc3c2)=N1", "note": "(stereo not shown) [Example 59, 3-(3-isopropyl-3-methyl-3,4-dihydroisoquinolin-1-yl)quinoline]", "degree of disease onset": 0}
{"compound": "CC(C)CC1(C)Cc2ccccc2C(c2cnc3ccccc3c2)=N1", "note": "(stereo not shown) [Example 60, 3-(3-isobutyl-3-methyl-3,4-dihydroisoquinolin-1-yl)quinoline]", "degree of disease onset": 0}
{"compound": "CC(C)CCC1(C)Cc2ccccc2C(c2cnc3ccccc3c2)=N1", "note": "(stereo not shown) [Example 62, 3-(3-isopentyl-3-methyl-3,4-dihydroisoquinolin-1-yl)quinoline]", "degree of disease onset": 0}
{"compound": "CCC1(CC)Cc2ccccc2C(c2cnc3ccccc3c2)=N1", "note": "[Example 63, 3-(3,3-diethyl-3,4-dihydroisoquinolin-1-yl)quinoline]", "degree of disease onset": 0}
{"compound": "FC(F)(F)C1(c2ccccc2)Cc2ccccc2C(c2cnc3ccccc3c2)=N1", "note": "(stereo not shown) [Example 74, 3-(3-trifluoromethyl-3-phenyl-3,4-dihydroisoquinolin-1-yl)quinoline]", "degree of disease onset": 0}
{"compound": "c1ccc2c(c1)CC1(CCCC1)N=C2c1cnc2ccccc2c1", "note": "[Example 80, 1′-quinolin-3-yl-4′H-spiro[cyclopentane-1,3′-isoquinoline]]", "degree of disease onset": 0}
{"compound": "Fc1cccc2c1CC1(CCCC1)N=C2c1cnc2ccccc2c1", "note": "[Example 81, 5′-fluoro-1′-quinolin-3-yl-4′H-spiro[cyclopentane-1,3′-isoquinoline]]", "degree of disease onset": 0}
{"compound": "Fc1ccc2c(c1)CC1(CCCC1)N=C2c1cnc2ccccc2c1", "note": "[Example 82, 6′-fluoro-1′-quinolin-3-yl-4′H-spiro[cyclopentane-1,3′-isoquinoline]]", "degree of disease onset": 0}
{"compound": "CC1CCC2(Cc3ccccc3C(c3cnc4ccccc4c3)=N2)C1", "note": "(stereo not shown) [Example 101, 1′-quinolin-3-yl-4′H-spiro[(3-methylcyclopentane)-1,3′-isoquinoline]]", "degree of disease onset": 0}
{"compound": "CC1(C)Cc2c(F)cccc2C(c2cnc3ccccc3c2)=N1.O=S(=O)(O)O", "note": "[Example 104, 3-(5-fluoro-3,3-dimethyl-3,4-dihydroisoquinolin-1-yl)quinoline sulfate]", "degree of disease onset": 0}
{"compound": "CC1(C)Cc2c(F)cccc2C(c2cnc3ccccc3c2)=N1.O=[N+]([O-])O", "note": "[Example 105, 3-(5-fluoro-3,3-dimethyl-3,4-dihydroisoquinolin-1-yl)quinoline nitrate]", "degree of disease onset": 0}
{"compound": "CC1(C)Cc2c(F)cccc2C(c2cnc3ccccc3c2)=N1.O=C(O)C(=O)O", "note": "[Example 106, 3-(5-fluoro-3,3-dimethyl-3,4-dihydroisoquinolin-1-yl)quinoline oxalate]", "degree of disease onset": 0}
{"compound": "CON=Cc1cccc2c1CC(C)(C)N=C2c1cnc2ccccc2c1", "note": "[Example 117, 1-(3,3-dimethyl-1-quinolin-3-yl-3,4-dihydroisoquinolin-5-yl)methanone=O-methyloxime]", "degree of disease onset": 0}
{"compound": "CC1c2ccccc2C(c2cnc3ccccc3c2)=NC1(C)C", "note": "(stereo not shown) [Example 119, 3-(3,3,4-trimethyl-3,4-dihydroisoquinolin-1-yl)quinoline]", "degree of disease onset": 0}
{"compound": "CC1(C)Cc2c(cccc2C(F)F)C(c2cnc3ccccc3c2)=N1", "note": "[Example 132, 3-(5-difluoromethyl-3,3-dimethyl-3,4-dihydroisoquinolin-1-yl)quinoline]", "degree of disease onset": 0}
{"compound": "CC1(C)N=C(c2cnc3ccccc3c2)c2ccc(F)cc2C1(C)C", "note": "[Example 150, 3-(6-fluoro-3,3,4,4-tetramethyl-3,4-dihydroisoquinolin-1-yl)quinoline]", "degree of disease onset": 0}
{"compound": "Cc1cccc2c1C(C)(C)C(C)(C)N=C2c1cnc2ccccc2c1", "note": "[Example 160, 3-(3,3,4,4,5-pentamethyl-3,4-dihydroisoquinolin-1-yl)quinoline]", "degree of disease onset": 0}
{"compound": "c1ccc2c(c1)C(c1cnc3ccccc3c1)=NCC21CCC1", "note": "[Example 171, 1′-quinolin-3-yl-4′H-spiro[cyclobutane-1,4′-isoquinoline]]", "degree of disease onset": 0}
{"compound": "CC1(C)N=C(c2cnc3ccccc3c2)c2cccc(F)c2C1(C)O", "note": "(stereo not shown) [Example 181, 3-(5-fluoro-4-hydroxy-3,3,4-trimethyl-3,4-dihydroisoquinolin-1-yl)quinoline]", "degree of disease onset": 0}
{"compound": "COC1(C)c2c(F)cccc2C(c2cnc3ccccc3c2)=NC1(C)C", "note": "(stereo not shown) [Example 183, 3-(5-fluoro-4-methoxy-3,3,4-trimethyl-3,4-dihydroisoquinolin-1-yl)quinoline]", "degree of disease onset": 0}
{"compound": "CC1c2ccccc2C(c2cnc3ccccc3c2)=[N+]([O-])C1(C)C", "note": "(stereo not shown) [Example 206, 3-(3,3,4-trimethyl-2-oxide-3,4-dihydroisoquinolin-1-yl)quinoline]", "degree of disease onset": 0}
{"compound": "CC1(C)Cc2c(F)cccc2C(c2cnc3ccccc3c2)=[N+]1[O-]", "note": "[Example 208, 3-(5-fluoro-3,3-dimethyl-2-oxide-3,4-dihydroisoquinolin-1-yl)quinoline]", "degree of disease onset": 0}
{"compound": "CC1(C)c2ccc(F)cc2C(c2cnc3ccccc3c2)=[N+]([O-])C1(C)C", "note": "[Example 210, 3-(7-fluoro-3,3,4,4-tetramethyl-2-oxide-3,4-dihydroisoquinolin-1-yl)quinoline]", "degree of disease onset": 0}
